{"source": "patent US20260223897A1", "about": "“SIAMENOSIDE I SWEETENED BEVERAGES WITH MOGROSIDE BLENDS” (The Coca-Cola Company, priority 2023, published 2026)", "key": {"[1]": {"system": "panelists", "test": "Example 2 paired sensory test: higher syrupy mouthfeel", "conditions": "Table 10; Sample A = 400 ppm Siamenoside I alone vs Sample B (blend, 400 ppm total)"}, "[2]": {"system": "panelists", "test": "Example 1 paired taste test: panelists select the more bitter sample", "assay_type": "in vivo", "protocol": "The sample was tested within 24 hours at room temperature.\nTaste tests were carried out with 7-9 panelists and run singlet to triplet."}, "[3]": {"conditions": "cited from earlier work"}, "[4]": {"system": "panelists", "test": "Example 2 paired sensory test: higher licorice flavor", "conditions": "Table 7; Sample A = 400 ppm Siamenoside I alone vs Sample B (blend, 400 ppm total)"}, "[5]": {"system": "panelists", "test": "Example 2 paired sensory test: more bitter sample", "assay_type": "in vivo", "conditions": "Table 6"}, "[6]": {"system": "panelists", "test": "Example 3 paired sensory test: more bitter sample", "assay_type": "in vivo", "protocol": "Samples were tested within 7 days. […] Each pair of mogroside blends was evaluated by each panelist in triplet."}, "[7]": {"system": "panelists", "test": "Example 3 paired sensory test: higher licorice flavor", "assay_type": "in vivo", "conditions": "Table 14; Sample A = 500 ppm Siamenoside I alone vs Sample B (tri-blend of same row, 500 ppm total)", "protocol": "Samples were tested within 7 days.\nSensory tests were carried out with 8-12 panelists. Each pair of mogroside blends was evaluated by each panelist in triplet."}}}
{"smiles": "C[C@H](CC[C@@H](O[C@@H]1O[C@H](CO[C@@H]2O[C@H](CO)[C@@H](O)[C@H](O)[C@H]2O)[C@@H](O)[C@H](O)[C@H]1O[C@@H]1O[C@H](CO)[C@@H](O)[C@H](O)[C@H]1O)C(C)(C)O)[C@H]1CC[C@@]2(C)[C@@H]3CC=C4[C@@H](CC[C@H](O[C@@H]5O[C@H](CO)[C@@H](O)[C@H](O)[C@H]5O)C4(C)C)[C@]3(C)[C@H](O)C[C@]12C", "note": "[Siamenoside I]", "values": [{"measurement": "Number of Panelist to choose A as higher syrupy mouthfeel", "setting": "[1]", "result": 7}, {"measurement": "Number of Panelists that chose A as more bitter", "setting": "[2]; Table 1, Sample A = 400 ppm siamenoside alone vs Sample B (blend of same row, 400 ppm total mogroside), filtered water", "result": 15}, {"measurement": "Number of Panelists that chose A as more bitter", "setting": "[2]; Table 2, Sample A = 400 ppm Siamenoside I alone vs Sample B (blend, 400 ppm total)", "result": 6}, {"measurement": "Number of Panelists that chose A as more bitter", "setting": "[2]; Table 3, Sample A = 400 ppm Siamenoside I alone vs Sample B (blend, 400 ppm total)", "result": 10}, {"measurement": "Number of Panelists that chose A as more bitter", "setting": "[2]; Table 3, Sample A = 500 ppm Siamenoside I alone vs Sample B (blend, 500 ppm total)", "result": 7}, {"measurement": "taste balance compared with mogroside V", "setting": "[3]; WO 2018213683 A1", "result": "better balance in sweetness, bitterness, sweet linger, astringency, and mouthfeel than mogroside V"}, {"measurement": "sensory properties at high concentrations", "setting": "[3]; high purity, concentrations required to achieve a sucrose equivalence to 10° Brix", "result": "significant off-tastes such as licorice, metallic and bitter tastes, as well as sweetness lingering and bitter lingering"}, {"measurement": "Number of Panelist that chose A as higher licorice flavor", "setting": "[4]", "result": 20}, {"measurement": "Number of Panelists that chose A as more bitter", "setting": "[5]; Sample A = 400 ppm Siamenoside I alone vs Sample B (blend, 400 ppm total)", "result": 17}, {"measurement": "Number of Panelists that chose A as more bitter", "setting": "[5]; Sample A = 500 ppm Siamenoside I alone vs Sample B (blend, 500 ppm total), Sample B with 400 ppm of Siamenoside I", "result": 12}, {"measurement": "Number of Panelists that chose A as more bitter", "setting": "[5]; Sample A = 500 ppm Siamenoside I alone vs Sample B (blend, 500 ppm total), Sample B with 450 ppm of Siamenoside I", "result": 15}, {"measurement": "Number of Panelists that chose A as more bitter", "setting": "[5]; Sample A = 500 ppm Siamenoside I alone vs Sample B (blend, 500 ppm total), Sample B with 487.5 ppm of Siamenoside I", "result": 13}, {"measurement": "Number of Panelist to choose A as more bitter", "setting": "[6]; Table 11, Sample A = 500 ppm Siamenoside I alone vs Sample B (tri-blend, 500 ppm total)", "result": 19}, {"measurement": "Number of Panelist to choose A as more bitter", "setting": "[6]; Table 13, Sample A = 500 ppm Siamenoside I alone vs Sample B (blend, 500 ppm total)", "result": 16}, {"measurement": "Number of Panelist to choose A as higher licorice flavor", "setting": "[7]", "result": 23}]}
